The test system of one series is 3T3 pre-adipocytes. Briefly: Fluorescence microscopy of lipid droplets (Nile red/DAPI). The class given is cell-based, mouse. The conditions noted are these: 100 μM, D0-D6, stimulation with 1 μM dexamethasone. As to the method: […] The incubation medium was then discarded and the cells were washed with PBS and stained with Nile red (10 μg/ml) and DAPI (1 μg/ml) in 50 μl/well of PBS for 20 minutes at room temperature. After removal of the staining solution, the cells were washed with PBS and fixed with 4% paraformaldehyde in PBS for 30 minutes at room temperature. Finally, the cells were washed three times with PBS and mounted on the object slide by means of Fluorescence Mounting Medium (Dako, Carpinteria, USA). The fluorescence microscopy images were taken by using a Zeiss Axio Observer.Z1 with ApoTome (Carl Zeiss Microlmaging, Jena, Germany) using the DAPI and GFP filter settings.

Another series relates to caspases 3/7. Put plainly: Caspase-Glo 3/7 apoptosis assay in mature adipocytes. The class given is cell-based, mouse. The following applies: 24 hours. How it is done:
In order to evaluate a possible induction of apoptosis in mature adipocytes as a result of the treatment with (Z)-guggulsterone and/or glycyrrhetinic acid, a Caspase-Glo® 3/7 assay kit (Promega, Mannheim, Germany) was used.
3T3-L1 cells were seeded into 96-well plates (5,000-10,000 cells/well) and, as described above, cultivated to maturity (D8). On D8, the mature adipocytes were incubated for 24 hours under standard culture conditions with guggulsterone and/or glycyrrhetinic acid (1-250 μM). Cells treated as follows served as controls: (1) pure cell culture medium (undifferentiated control), (2) pure differentiation medium (untreated control), and (3) DMSO, corresponding to the highest DMSO concentration in the test batches, in differentiation medium (DMSO control). After 24 hours, the incubation medium was discarded, the cells were washed with 100 μl/well of DMEM, and then 150 μl/well of Caspase-Glo® 3/7 reagent in DMEM (1:1, v/v) were added. After incubation for 2 hours at room temperature, the luminescence signal of the reagent was detected by means of a Synergy 2 plate reader (BioTek, Winooski, USA).
The combination of 250 μM of each of the two compounds brought about an increase in caspase 3/7 activity by a factor of 3.5-4.0 as compared with untreated cells (FIG. 2).

Series [1] can be described thus: Resazurin-based cell viability assay. Also noted: species or system mouse. The following applies: mouse, mature 3T3-L1 adipocytes; 250 μM (of each compound), 24-hour treatment, 1 μM dexamethasone stimulation; read-out: reduction of cell viability (number of mature adipocytes). As to the method: (§1) The cell viability of mature adipocytes after treatment with a test compound was measured by means of a fluorimetric Resazurin-based assay. Vital, that is to say metabolically active, cells are capable of converting Resazurin into the fluorescent derivative Resorufin (Strotmann U. J. et al., Ecotox. Environ. Safety 1993, 25, 79-89). 3T3-L1 cells were seeded into 96-well plates (5,000-10,000 cells/well) and, as described above, cultivated to maturity (D8). […] Cells treated as follows served as controls: (1) pure cell culture medium (undifferentiated control), (2) pure differentiation medium (untreated control), (3) DMSO, corresponding to the highest DMSO concentration in the test batches, in differentiation medium (DMSO control), and (4) 150 μg/ml digitonin in DMEM (cell death control). After 24 hours, the incubation medium was discarded and the cells were washed with 100 μl/well of DMEM and then incubated for 2 hours under standard culture conditions with 50 μl/well of Resazurin solution (60 μM in DMEM). Finally, the Resorufin fluorescence was detected by means of a Synergy 2 plate reader (BioTek, Winooski, USA) (excitation: 540 nm, emission: 590 nm, mirror: 550 nm). […] Finally, the cell viability, as a measure of the number and fitness of the cells, was measured by means of a Resazurin assay.
In general terms: Alamar Blue is a resazurin reagent that responds to reducing activity.

The subject of the next series is 3T3-L1 mouse fibroblasts. Put plainly: Nile red assay of cellular lipid content during adipogenesis. The class given is cell-based. The conditions noted are these: for Lipid content: treatment D0-D2, read on D6, stimulated untreated cells = 100%, unstimulated = 0%; for IC50: Mus musculus, 3T3-L1, 144 h, treatment for the entire 6-day adipocyte differentiation (D0-D6), read-out: IC50 value for the inhibition of cellular lipid accumulation. How it is done:
The 3T3-L1 mouse fibroblasts were cultivated in Dulbecco's modified Eagle's medium (DMEM) incl. 10% foetal calf serum (FCS) and 2 mM L-glutamine at 37° C., 95% humidity and 5% CO2.
Adipocyte differentiation and maturation was induced as described (Yang J. Y. et al., Obesity 2008, 16, 16-22; Shugart E. C. and Umek R. M., Cell Growth & Differentiation 1997, 8, 1091-1098). The cells were stimulated not only with dexamethasone, as is generally conventional, but also with cortisol, which is more physiological.
The cells were seeded into 96-well plates and cultivated to confluence. Two days after reaching cell confluence (D0=day 0), cell differentiation was induced by adding DMEM with 10% FCS, 167 nM insulin, […] and 1 μM dexamethasone or 200 nM cortisol for two days (D2). The cells were then cultivated for a further two days in DMEM with 10% FCS and 167 nM insulin (D4), followed by cultivation in DMEM/10% FCS for a further four days (D8). Ultimately, >20-30% of the cells were mature adipocytes with accumulated lipid stores.
As an indicator for the degree of adipogenesis, the lipid content of the cells (intracellular lipid droplets) was detected by means of the lipophilic colour reagent Nile red, as described (Yang J. Y. et al., Obesity 2008, 16, 16-22; Greenspan P., The Journal of Cell Biology 1985, 100, 965-973). 3T3-L1 cells (5,000-10,000 cells/well), after reaching confluence, were cultivated for a further two days in 96-well plates (D0). The cells were then treated with guggulsterone and/or glycyrrhetinic acid, individually or in combination, for days D0-D2, D2-D4, D4-D6 and D0-D6 of the adipogenesis (concentration range: 1-200 μM). The medium, with or without test substance(s), was changed or renewed every two days. Cells treated as follows served as controls: (1) pure cell culture medium (undifferentiated control), (2) pure differentiation medium (untreated control), and (3) DMSO, corresponding to the highest DMSO concentration in the test batches, in differentiation medium (DMSO control).
On day 6 (D6), the intracellular lipid accumulation (lipid droplets) was quantified by means of a Nile red assay. To that end, the cell medium was discarded and the cells were washed with 100 μl/well of PBS (pH 7.4). The cells were then incubated for 20 minutes at room temperature with 50 μl/well of Nile red in PBS (10 μg/ml). The lipid content was determined fluorometrically using a Synergy 2 plate reader (BioTek, Winooski, USA) (excitation: 485 nm, emission: 560 nm, mirror: 550 nm). Nile red selectively stains neutral lipids, for example triacylglycerides in intracellular droplets.
The lipid content, that is to say the storage of triacylglycerides in intracellular lipid droplets, is an indicator for the degree of adipogenesis. […] Since the staining reagent Nile red, upon excitation at 485 nm and fluorescence detection at 560 nm, is very selective for neutral lipids, it was thus possible specifically to measure the intracellular accumulation of triacylglycerides during advancing adipogenesis.
On day 6 of the adipogenesis (D6), the accumulation of intracellular lipid droplets was measured fluorometrically by means of a Nile red assay (excitation: 485 nm; emission: 560 nm; 550 nm mirror). The data were normalised and the lipid accumulation is given in percent; unstimulated cells were used as 0% reference, and stimulated but untreated cells were used as 100% reference.

Another series relates to mature 3T3 adipocytes. Put plainly: Resazurin-based cell viability assay. Also noted: species or system mouse. The conditions noted are these: up to 250 μM, 24-hour treatment, 1 μM dexamethasone stimulation. As to the method: as §1
For series [2] the following is noted: cited from earlier work.

As usually defined, the IC50 is the concentration needed to halve the response being measured. Take `CC1(C)[C@@H](O)CC[C@]2(C)[C@H]3C(=O)C=C4[C@@H]5C[C@@](C)(C(=O)O)CC[C@]5(C)CC[C@@]4(C)[C@]3(C)CC[C@@H]12` [18β-glycyrrhetinic acid]: the “lipid droplets versus stimulated untreated cells” value in the series with 3T3 pre-adipocytes was “significantly fewer and smaller lipid droplets”. Moreover, in the series on caspases 3/7 (250 μM (of each compound)), the “increase in caspase 3/7 activity as compared with untreated cells” value was 2.5-3.0 factor. In series [1], the cytotoxicity at 24 h, 250 μM was found to be 28%. Further, the figures for the Lipid content with 3T3-L1 mouse fibroblasts (10 μM), with 3T3-L1 mouse fibroblasts (40 μM) and in the series with 3T3-L1 mouse fibroblasts (100 μM) were 98%, 91% and 7%, respectively. The concentration for half-maximal inhibition (IC50) in the series with 3T3-L1 mouse fibroblasts was approximately 20 µM.
For the molecule `C/C=C1\C(=O)C[C@H]2[C@@H]3CCC4=CC(=O)CC[C@]4(C)[C@H]3CC[C@]12C` [(Z)-guggulsterone], the “lipid droplets versus stimulated untreated cells” value in the series on 3T3 pre-adipocytes is “significantly fewer and smaller lipid droplets”. Further, the “induction of caspases 3/7” value in the series on caspases 3/7 (dexamethasone or cortisol stimulation) is “no induction of caspases 3/7”. Further, the “effect on cell viability” value with mature 3T3 adipocytes is listed as “did not impair the cell viability”. Also, the Lipid content was determined as 71% in the series on 3T3-L1 mouse fibroblasts (10 μM), 26% with 3T3-L1 mouse fibroblasts (40 μM) and 5% in the series on 3T3-L1 mouse fibroblasts (100 μM). Besides, the half-maximal inhibitory concentration (IC50) in the series on 3T3-L1 mouse fibroblasts was approximately 5 µM.
For the molecule guggulsterone, in series [2], the “systemic administration that is not safe” value is listed as “more than 30 mg/day”.

Values taken from patent publication US20180207078A1, “COMBINATION OF NATURAL SUBSTANCES COMPRISING AT LEAST ONE […] ACID AND AT LEAST ONE GUGGULSTERONE, AND USE THEREOF FOR COSMETIC APPLICATIONS” (OntoChem, GmbH, priority 2015, published 2018).
